From patent US12410160B2 (Gilead Sciences, Inc., priority 2021, dated 2025)

Legend:
[1] = molecular target: human KHK-A (Homo sapiens (Human), UniProt P50053); experiment: KHK Biochemical Assay (IC50), ADP-Glo, KHK-A; settings: average of at least two separate assays
Method in brief: (§1)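 His-tagged enzyme expressed in BL21 (DE3), Ni-NTA purified. Compounds, serially diluted 1:3 in DMSO, pre-incubated 30 min with enzyme in 50 mM Hepes pH 7.4, 140 mM KCl, 5 mM MgCl2, 0.01% Triton-X, then ATP and fructose added; 4 h at room temperature. ADP formation read by ADP-Glo luminescence.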

[2] = molecular target: human KHK-C (Homo sapiens (Human), UniProt P50053); experiment: KHK Biochemical Assay (IC50), ADP-Glo, KHK-C; settings: average of at least two separate assays
Sequence of human KHK-C (P50053 whole entry): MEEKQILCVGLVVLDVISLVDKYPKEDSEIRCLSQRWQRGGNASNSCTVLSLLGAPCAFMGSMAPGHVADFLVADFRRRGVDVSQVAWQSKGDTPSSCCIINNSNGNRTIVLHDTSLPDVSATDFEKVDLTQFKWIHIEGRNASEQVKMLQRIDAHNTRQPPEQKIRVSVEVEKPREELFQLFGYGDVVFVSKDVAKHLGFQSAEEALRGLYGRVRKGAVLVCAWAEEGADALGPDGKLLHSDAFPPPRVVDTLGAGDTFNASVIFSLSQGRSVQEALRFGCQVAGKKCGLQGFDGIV
Method in brief: as §1

Sequence of human KHK-A (P50053 other isoform, or with tags, fused parts or gaps): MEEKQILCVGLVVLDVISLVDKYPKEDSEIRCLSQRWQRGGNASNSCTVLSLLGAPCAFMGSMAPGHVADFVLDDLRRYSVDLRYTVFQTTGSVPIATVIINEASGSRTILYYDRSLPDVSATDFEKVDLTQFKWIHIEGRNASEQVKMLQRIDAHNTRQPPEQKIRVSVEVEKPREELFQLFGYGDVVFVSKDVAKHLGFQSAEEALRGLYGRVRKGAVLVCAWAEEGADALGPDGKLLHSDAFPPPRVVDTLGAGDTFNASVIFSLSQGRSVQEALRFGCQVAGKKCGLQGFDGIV

| Compound | IC50 [1] [nM] | IC50 [2] [nM] |
| --- | --- | --- |
| C[C@H]1[C@H](O)CN1c1nc(-c2ccc(OC3CC3)c(S(C)(=N)=O)c2)c2c(n1)C(F)(F)CC2 (stereo partly drawn) [Example 541, (2-cyclopropoxy-5-(7,7-difluoro-2-((2S,3R)-3-hydroxy-2-methylazetidin-1-yl)-6,7-dihydro-5H-cyclopenta[d]pyrimidin-4-yl)phenyl)(imino)(methyl)-λ^6-sulfanone] | 0.9 | 1.3 |
| C[C@H]1[C@H](O)CN1c1nc(-c2ccc3c(c2)CCC32COCC(=O)N2)c2c(n1)C(F)(F)CC2 (stereo partly drawn) [Example 548, 5-(7,7-difluoro-2-((2S,3R)-3-hydroxy-2-methylazetidin-1-yl)-6,7-dihydro-5H-cyclopenta[d]pyrimidin-4-yl)-2,3-dihydrospiro[indene-1,3′-morpholin]-5′-one] | 7.3 | 0.1 |
| C[C@H]1[C@H](O)CN1c1nc(-c2ccc3c(c2)OCCC32NC(=O)NC2=O)c2c(n1)C(F)(F)CC2 (stereo partly drawn) [Example 551, 7-(7,7-difluoro-2-((2S,3R)-3-hydroxy-2-methylazetidin-1-yl)-6,7-dihydro-5H-cyclopenta[d]pyrimidin-4-yl)spiro[chromane-4,4′-imidazolidine]-2′,5′-dione] | 5.1 | 0.9 |
| C[C@H]1[C@H](O)CN1c1nc(-c2ccc3c(c2)OCCC32COC(=O)N2)c2c(n1)C(F)(F)CC2 (stereo partly drawn) [Example 553, 7-(7,7-difluoro-2-((2S,3R)-3-hydroxy-2-methylazetidin-1-yl)-6,7-dihydro-5H-cyclopenta[d]pyrimidin-4-yl)spiro[chromane-4,4′-oxazolidin]-2′-one] | 15.3 | 1.6 |
| C[C@H]1[C@H](O)CN1c1nc(-c2ccc3c(c2)COCC32COC(=O)N2)c2c(n1)C(F)(F)CC2 (stereo partly drawn) [Example 554, 7-(7,7-difluoro-2-((2S,3R)-3-hydroxy-2-methylazetidin-1-yl)-6,7-dihydro-5H-cyclopenta[d]pyrimidin-4-yl)spiro[isochromane-4,4′-oxazolidin]-2′-one] | 29.2 | 2.8 |
| C[C@H]1[C@H](O)CN1c1nc(-c2ccc3c(c2)CC2OC(=O)NC32)c2c(n1)C(F)(F)CC2 (stereo partly drawn) [Example 557, 6-(7,7-difluoro-2-((2S,3R)-3-hydroxy-2-methylazetidin-1-yl)-6,7-dihydro-5H-cyclopenta[d]pyrimidin-4-yl)-3,3a,8,8a-tetrahydro-2H-indeno[1,2-cl]oxazol-2-one] | 10.8 | 8.6 |
| CC1OCC2(COc3cc(-c4nc(N5C[C@@H](O)[C@@H]5C)nc5c4CCC5(F)F)ccc32)NC1=O (stereo partly drawn) [Example 558, 6-(7,7-difluoro-2-((2S,3R)-3-hydroxy-2-methylazetidin-1-yl)-6,7-dihydro-5H-cyclopenta[d]pyrimidin-4-yl)-6′-methyl-2H-spiro[benzofuran-3,3′-morpholin]-5′-one] | 8.2 | 0.2 |
| COC[C@H]1CCN1c1nc(-c2ccc(C3(N)COC3)cc2)c2c(n1)C(F)(F)CC2 [Example 569, (R)-3-(4-(7,7-difluoro-2-(2-(methoxymethyl)azetidin-1-yl)-6,7-dihydro-5H-cyclopenta[d]pyrimidin-4-yl)phenyl)oxetan-3-amine] | 43 | 15.2 |
| C[C@H]1CCCN1c1nc(-c2ccc(C3(N)COC3)cc2)c2c(n1)C(F)(F)CC2 [Example 570, (S)-3-(4-(7,7-difluoro-2-(2-methylpyrrolidin-1-yl)-6,7-dihydro-5H-cyclopenta[d]pyrimidin-4-yl)phenyl)oxetan-3-amine] | 25 | 10.9 |
| NC1(c2ccc(-c3nc(N4CCC5CC54)nc4c3CCC4(F)F)cc2)COC1 (stereo not shown) [Example 571, 3-(4-(2-(2-azabicyclo[3.1.0]hexan-2-yl)-7,7-difluoro-6,7-dihydro-5H-cyclopenta[d]pyrimidin-4-yl)phenyl)oxetan-3-amine] | 43.5 | 49.7 |
| NC1(c2ccc(-c3nc(N4CCC4C4CCC4)nc4c3CCC4(F)F)cc2)COC1 (stereo not shown) [Example 572, 3-(4-(2-(2-cyclobutylazetidin-1-yl)-7,7-difluoro-6,7-dihydro-5H-cyclopenta[d]pyrimidin-4-yl)phenyl)oxetan-3-amine] | > 100 | 56.3 |
| C[C@H]1[C@H](O)CN1c1nc(-c2cc3c(s2)CCC3NS(C)(=O)=O)c2c(n1)C(F)(F)CC2 (stereo partly shown) [Example 574] | 11.1 | 9.4 |
| C[C@@H]1N(c2nc(-c3ccc4c(c3)OC[C@@H]4NS(C)(=O)=O)c3c(n2)C(F)(F)CC3)C[C@@]1(C)O [Example 575, N—((R)-6-(7,7-difluoro-2-((2S,3R)-3-hydroxy-2,3-dimethylazetidin-1-yl)-6,7-dihydro-5H-cyclopenta[d]pyrimidin-4-yl)-2,3-dihydrobenzofuran-3-yl)methanesulfonamide] | 52.4 | 5.9 |
| C[C@@H]1N(c2nc(-c3ccc4c(c3)CCC43COC(=O)N3)c3c(n2)C(F)(F)CC3)C[C@@]1(C)O (stereo partly drawn) [Example 576, 5-(7,7-difluoro-2-((2S,3R)-3-hydroxy-2,3-dimethylazetidin-1-yl)-6,7-dihydro-5H-cyclopenta[d]pyrimidin-4-yl)-2,3-dihydrospiro[indene-1,4′-oxazolidin]-2′-one] | > 100 | 6.8 |
| CS(=O)(=O)N[C@H]1COc2cc(-c3nc(N4CC[C@@H]4C(F)(F)F)nc4c3CCC4(F)F)ccc21 [Example 577, N—((R)-6-(7,7-difluoro-2-((R)-2-(trifluoromethyl)azetidin-1-yl)-6,7-dihydro-5H-cyclopenta[d]pyrimidin-4-yl)-2,3-dihydrobenzofuran-3-yl)methanesulfonamide] | 2.1 | 0.6 |
| C[C@H]1[C@H](O)CN1c1nc(-c2ccc3c(c2)COC[C@H]3NS(C)(=O)=O)c2c(n1)C(F)(F)CC2 [Example 578, N—((S)-7-(7,7-difluoro-2-((2S,3R)-3-hydroxy-2-methylazetidin-1-yl)-6,7-dihydro-5H-cyclopenta[d]pyrimidin-4-yl)isochroman-4-yl)methanesulfonamide] | 22.5 | 6.1 |
| C[C@H]1[C@H](O)CN1c1nc(-c2ccc3c(c2)COC[C@@H]3NS(=O)(=O)C2CC2)c2c(n1)C(F)(F)CC2 [Example 579, N—((R)-7-(7,7-difluoro-2-((2S,3R)-3-hydroxy-2-methylazetidin-1-yl)-6,7-dihydro-5H-cyclopenta[d]pyrimidin-4-yl)isochroman-4-yl)cyclopropanesulfonamide] | 25 | 2.7 |
| CS(=O)(=O)N[C@H]1COCc2cc(-c3nc(N4CC[C@@H]4C(F)(F)F)nc4c3CCC4(F)F)ccc21 [Example 581, N—((R)-7-(7,7-difluoro-2-((R)-2-(trifluoromethyl)azetidin-1-yl)-6,7-dihydro-5H-cyclopenta[d]pyrimidin-4-yl)isochroman-4-yl)methanesulfonamide] | 3.1 | 0.8 |
| C[C@H]1[C@H](F)CN1c1nc(-c2ccc3c(c2)COC[C@@H]3NS(C)(=O)=O)c2c(n1)C(F)(F)CC2 [Example 582, N—((R)-7-(7,7-difluoro-2-((2S,3R)-3-fluoro-2-methylazetidin-1-yl)-6,7-dihydro-5H-cyclopenta[d]pyrimidin-4-yl)isochroman-4-yl)methanesulfonamide] | 7 | 0.8 |
| C[C@H]1[C@@H](F)CN1c1nc(-c2ccc3c(c2)COC[C@@H]3NS(C)(=O)=O)c2c(n1)C(F)(F)CC2 [Example 583, N—((R)-7-(7,7-difluoro-2-((28,38)-3-fluoro-2-methylazetidin-1-yl)-6,7-dihydro-5H-cyclopenta[d]pyrimidin-4-yl)isochroman-4-yl)methanesulfonamide] | 8.7 | 1.3 |
| C[C@@H]1N(c2nc(-c3ccc4c(c3)COC[C@@H]4NS(C)(=O)=O)c3c(n2)C(F)(F)CC3)CC1(F)F [Example 584, N—((R)-7-(2-((S)-3,3-difluoro-2-methylazetidin-1-yl)-7,7-difluoro-6,7-dihydro-5H-cyclopenta[d]pyrimidin-4-yl)isochroman-4-yl)methanesulfonamide] | 19.8 | 2.6 |
| C[C@H]1[C@H](O)CN1c1nc(-c2ccc3c(c2)OC[C@@H]3NC2COC2)c2c(n1)C(F)(F)CC2 [Example 585, (2S,3R)-1-[7,7-difluoro-4-[(3R)-3-(oxetan-3-ylamino)-2,3-dihydrobenzofuran-6-yl]-5,6-dihydrocyclopenta[d]pyrimidin-2-yl]-2-methyl-azetidin-3-ol] | 41.6 | 21.2 |
| NC1(c2ccc(-c3nc(N4CC[C@@H]4C(F)(F)F)nc4c3CCC4(F)F)cc2)CCOC1 (stereo partly drawn) [Example 587, 3-[4-[7,7-difluoro-2-[(2R)-2-(trifluoromethyl)azetidin-1-yl]-5,6-dihydrocyclopenta[d]pyrimidin-4-yl]phenyl]tetrahydrofuran-3-amine] | 0.5 | 0.4 |
| NC1(c2ccc(-c3nc(N4CC[C@@H]4C(F)(F)F)nc4c3CCC4(F)F)cc2F)COC1 [Example 589, 3-[4-[7,7-difluoro-2-[(2R)-2-(trifluoromethyl)azetidin-1-yl]-5,6-dihydrocyclopenta[d]pyrimidin-4-yl]-2-fluoro-phenyl]oxetan-3-amine] | 2.7 | 1.4 |
| NC1(c2ccc(-c3nc(N4CCC4C(F)F)nc4c3CCC4(F)F)cc2)COC1 (stereo not shown) [Example 678, 3-[4-[2-[2-(difluoromethyl)azetidin-1-yl]-7,7-difluoro-5,6-dihydrocyclopenta[d]pyrimidin-4-yl]phenyl]oxetan-3-amine] | 4.6 | 1.8 |
| NC1(c2ccc(-c3nc(N4CCC4C(F)(F)F)nc4c3CCC4(F)F)cc2)COC1 (stereo not shown) [Example 683, 3-[4-[7,7-difluoro-2-[2-(trifluoromethyl)azetidin-1-yl]-5,6-dihydrocyclopenta[d]pyrimidin-4-yl]phenyl]oxetan-3-amine] | 2.4 | 0.9 |
